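Assay format: 96-well plates, 48-hour exposure. GI50 = concentration required for 50% inhibition of growth.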 Active and inactive are the calls of the source. Rule as the data show it: active = GI50 up to about 1.1 µM and inactive = higher.
Tests used:
Experiment in all cases: growth of human tumour cells (NCI), 48 h
SK-MEL-28 = test system: SK-MEL-28
BT-549 = test system: BT-549
OVCAR-3 = test system: OVCAR-3
SN12C = test system: SN12C
NCI-H226 = test system: NCI-H226
RXF 393 = test system: RXF 393
UACC-62 = test system: UACC-62
DU-145 = test system: DU-145
SF-539 = test system: SF-539
SNB-75 = test system: SNB-75
HCT-15 = test system: HCT-15
LOX IMVI = test system: LOX IMVI
HCT-116 = test system: HCT-116
SF-268 = test system: SF-268
786-0 = test system: 786-0
HOP-92 = test system: HOP-92
UO-31 = test system: UO-31
MDA-N = test system: MDA-N
HCC 2998 = test system: HCC 2998

Structure (SMILES)	GI50 (SK-MEL-28)	GI50 (BT-549)	GI50 (OVCAR-3)	GI50 (SN12C)	GI50 (NCI-H226)	GI50 (RXF 393)	GI50 (UACC-62)	GI50 (DU-145)	GI50 (SF-539)	GI50 (SNB-75)	GI50 (HCT-15) [µM]	GI50 (LOX IMVI)	GI50 (HCT-116)	GI50 (SF-268)	GI50 (786-0)	GI50 (HOP-92)	GI50 (UO-31)	GI50 (MDA-N)	GI50 (HCC 2998)
O=c1oc2ccccc2n1CCCn1c(=O)oc2ccccc21	> 100 µM (inactive)	> 100 µM (inactive)	> 100 µM (inactive)	> 100 µM (inactive)	> 100 µM (inactive)	82.8 µM (inactive)	> 100 µM (inactive)	> 100 µM (inactive)	> 100 µM (inactive)	44.5 µM (inactive)	> 100	> 100 µM (inactive)	> 100 µM (inactive)	> 100 µM (inactive)	> 100 µM (inactive)				
O=C(O)/C=C/c1ccc2c(c1)CC1(Cc3ccccc3C1)C2			27.7 µM (inactive)	44.5 µM (inactive)	33.7 µM (inactive)	94 µM (inactive)	> 100 µM (inactive)		96.4 µM (inactive)		40.3	38.1 µM (inactive)	23 µM (inactive)		> 100 µM (inactive)	52.2 µM (inactive)	80 µM (inactive)	> 100 µM (inactive)	93.8 µM (inactive)
COc1cc2oc(=O)cc(C)c2c(OC)c1O	> 100 µM (inactive)		> 100 µM (inactive)	> 100 µM (inactive)	> 100 µM (inactive)		> 100 µM (inactive)	> 100 µM (inactive)	> 100 µM (inactive)	> 100 µM (inactive)	> 100	> 100 µM (inactive)	> 100 µM (inactive)	> 100 µM (inactive)	> 100 µM (inactive)		> 100 µM (inactive)	> 100 µM (inactive)	
Cc1ccc(N/C(=C(/C(Cl)=C(Cl)Cl)[N+](=O)[O-])n2nnc3ccccc32)cc1	17.5 µM (inactive)	17.7 µM (inactive)	16.7 µM (inactive)	20.4 µM (inactive)	18.5 µM (inactive)				15.2 µM (inactive)	18.8 µM (inactive)	24.3		30 µM (inactive)	18.8 µM (inactive)	20.8 µM (inactive)		16.6 µM (inactive)	18.9 µM (inactive)	18.7 µM (inactive)
O=c1ssc(Cl)c1Nc1c(Cl)ssc1=O	28.4 µM (inactive)	18.7 µM (inactive)	20.5 µM (inactive)	19.5 µM (inactive)	28.4 µM (inactive)	15 µM (inactive)	> 40.7 µM (inactive)	17.3 µM (inactive)	25.1 µM (inactive)	25.9 µM (inactive)	18.6	14.8 µM (inactive)	17.5 µM (inactive)	23.1 µM (inactive)	17.8 µM (inactive)	20 µM (inactive)	14.4 µM (inactive)		22.3 µM (inactive)
